Measured values taken from EP0237495A2, “Halogenides of the ester of 2,N,N,N-dimethyl-alkyl-amino-ethanol with substituted acetic acid and pharmaceutical compositions having antiinflammatory and antiseptic activities containing same” (Sigma-Tau Industrie Farmaceutiche Riunite S.p.A., priority 1986, dated 1987).

How the values were obtained:
Candida albicans = assay type: cell-based; settings: ATCC10231; Candida albicans ATCC 10231
Bacillus antracis = assay type: cell-based
Rhodotorula rubra = assay type: cell-based; settings: Rhodotorula rubra ISM 7198
Proteus vulgaris = assay type: cell-based; settings: ATCC6897; Proteus vulgaris ATCC 6897
Candida utilis = assay type: cell-based; settings: Williopsis jadinii; Candida utilis BB 0173
in vivo = settings: mouse, ip
Experimental: (§1) The test was carried out in the mouse. The products were administered by intraperitoneal injection. The death rate was assessed daily over a period of 14 days following treatment.

mouse = assay: in vivo; settings: ip
Experimental: as §1

rat subcutaneous tissue = assay: Topical tolerability in rat subcutaneous tissue; assay type: in vivo; parameters: key: 0: no response; 1: moderate response; 2: sharp response; 3: marked response; 4: extreme response; settings: 1 ml of 1% suspension s.c., arbitrary scale 0-4; for Irritation degree 4h: 4 hours after administration; for Irritation degree 24h: 24 hours after administration
Experimental: The test was carried out on rats using two different test procedures. The products were tested at 1% concentration. According to the first procedure, 1 ml of the test suspensions were injected subcutaneously (s.c.) in the side of animals. 4 or 24 hours following administration, the animals were sacrificed, and the degree of subcutaneous irriration estimated.
The presence of erythema, oedema and necrosis was assessed based on the following arbitrary rating scale • - 0 : no response • - 1 : moderate response • - 2 : sharp response • - 3 : marked response • - 4 : extreme response

Cryptococcus neoformans = assay type: cell-based; settings: Cryptococcus neoformans ISM 7182
Pseudomonas aeruginosa = assay type: cell-based; settings: ATCC14502; Pseudomonas aeruginosa ATCC 14502
Sarcina lutea = assay type: cell-based; settings: Micrococcus luteus, ATCC9341; Sarcina lutea ATCC 9341
Penicillium funicolosum = assay type: cell-based; settings: ATCC9644; Penicillium funicolosum ATCC 9644
Streptococcus faecalis = assay type: cell-based; settings: Enterococcus faecalis, ATCC8043; Streptococcus faecalis ATCC 8043
Bacillus subtilis = assay type: cell-based; settings: ATCC6633; Bacillus subtilis ATCC 6633
[1] = tested on: Staphylococcus epidermidis; assay type: cell-based; settings: Staphylococcus epidermidis BB 0223
Escherichia coli = assay type: cell-based; settings: Escherichia coli K 12
Klebsiella pneumoniae = assay type: cell-based; settings: ATCC10031; Klebsiella pneumoniae ATCC 10031
rat peritoneum = settings: in vivo, ip
Aspergillus niger = assay type: cell-based; settings: ATCC9642; Aspergillus niger ATCC 9642
Pseudomonas maltophilia = assay type: cell-based; settings: Stenotrophomonas maltophilia, ATCC13637; Pseudomonas maltophilia ATCC 13637
Staphylococcus aureus = assay type: cell-based; settings: ATCC6538P; Staphylococcus aureus ATCC 6538P
[2] = tested on: Bordetella bronchiseptica; assay type: cell-based; settings: ATCC4617; Bordetella bronchiseptica ATCC 4617
[3] = tested on: acetic acid-induced peritoneal exudation; assay: Antiexudative activity (acetic acid-induced peritoneal exudation); assay type: in vivo; settings: rat, 1 hour before i.p. 1% acetic acid
Experimental: The test was carried out in the rat. The products were orally administered 1 hour before the intraperitoneal injection of 0.5 ml of 1% acetic acid. Along with the irritant agent, 1 ml of 0,1% Blue Evans was injected i.v. to the rats. The same procedure as that described above was followed for collecting the peritoneal exudate and rating the irritation degree.

Streptococcus pyogenes = assay type: cell-based; settings: ATCC12380; Streptococcus pyogenes ATCC 12380
Saccharomyces cerevisiae = assay type: cell-based; settings: Saccharomyces cerevisiae BB 0193

| Structure (SMILES) | MIC (Candida albicans) | MIC (Bacillus antracis) | MIC (Rhodotorula rubra) | MIC (Proteus vulgaris) | MIC (Candida utilis) | MIC (Cryptococcus neoformans) | MIC (Pseudomonas aeruginosa) | MIC (Sarcina lutea) | MIC (Penicillium funicolosum) | MIC (Streptococcus faecalis) | MIC (Bacillus subtilis) | MIC [1] | MIC (Escherichia coli) | MIC (Klebsiella pneumoniae) | MIC (Aspergillus niger) | MIC (Pseudomonas maltophilia) | MIC (Staphylococcus aureus) | MIC [2] | % Inhibition with respect to controls ([3]; 200 mg/kg orally) | % Inhibition with respect to controls ([3]; 400 mg/kg orally) | further results |
| --- | --- | --- | --- | --- | --- | --- | --- | --- | --- | --- | --- | --- | --- | --- | --- | --- | --- | --- | --- | --- | --- |
| CCCCCCCC[N+](C)(C)CCOC(=O)C(C)c1ccc(CC(C)C)cc1 (stereo not drawn) [AF 150, bromide of the ester of 2-N,N,N-dimethyl-octyl-amino-ethanol with p-isobutylphenyl-alpha-methylacetic acid] | ≤ 5 µg/mL | 10 µg/mL | ≤ 5 µg/mL | 10 µg/mL | ≤ 5 µg/mL | ≤ 5 µg/mL | 10 µg/mL | ≤ 5 µg/mL | 10 µg/mL | 20 µg/mL | 10 µg/mL | 10 µg/mL | 80 µg/mL | 10 µg/mL | 10 µg/mL | 40 µg/mL | ≤ 5 µg/mL | 10 µg/mL | 37% | 51% | mortality at 336 h (in vivo; 7.8 mg/kg): 0%; mortality at 336 h (in vivo; 15.6 mg/kg): 0%; mortality at 336 h (in vivo; 31.2 mg/kg): 100%; mortality at 336 h (in vivo; 62.5 mg/kg): 100%; mortality at 336 h (in vivo; 125 mg/kg): 83.3%; Mortality (mouse; 7.8 mg/kg): 0/6; Mortality (mouse; 31.2 mg/kg): 6/6; Mortality (mouse; 62.5 mg/kg): 6/6; Mortality (mouse; 125 mg/kg): 5/6; Irritation degree 4h (rat subcutaneous tissue): 2; Irritation degree 24h (rat subcutaneous tissue): 1; Percent increase in response with respect to controls (rat peritoneum): 185%; MIC (Streptococcus pyogenes): 20 µg/mL; MIC (Saccharomyces cerevisiae): ≤ 5 µg/mL |
| N=C(NCCCCCCNC(=N)NC(=N)Nc1ccc(Cl)cc1)NC(=N)Nc1ccc(Cl)cc1 [Chlorexidine, Chlorexidine gluconate, reference compound] | 20 µg/mL | 20 µg/mL | 40 µg/mL | 40 µg/mL | 40 µg/mL | 40 µg/mL | 80 µg/mL | 20 µg/mL | > 80 µg/mL | 20 µg/mL | ≤ 5 µg/mL | 10 µg/mL | 10 µg/mL | 40 µg/mL | 80 µg/mL | 80 µg/mL | ≤ 5 µg/mL | 40 µg/mL | – | – | MIC (Streptococcus pyogenes): 10 µg/mL; MIC (Saccharomyces cerevisiae): 80 µg/mL |
| CCCCCCCCCC[N+](C)(C)CCOC(=O)Cc1c(C)n(C(=O)c2ccc(Cl)cc2)c2ccc(OC)cc12 [RE 8, iodide of the ester of 2-N,N,N-dimethyl-decyl --amino-ethanol with 1-(p-chlorobenzoyl)-2-methyl-5-methoxy-3-indolyl-acetic acid] | ≤ 5 µg/mL | 10 µg/mL | ≤ 5 µg/mL | 80 µg/mL | ≤ 5 µg/mL | ≤ 5 µg/mL | 80 µg/mL | 10 µg/mL | ≤ 5 µg/mL | 10 µg/mL | 10 µg/mL | ≤ 5 µg/mL | > 80 µg/mL | > 80 µg/mL | ≤ 5 µg/mL | 80 µg/mL | ≤ 5 µg/mL | 80 µg/mL | 31% | 46% | mortality at 336 h (in vivo; 7.8 mg/kg): 0%; mortality at 336 h (in vivo; 15.6 mg/kg): 0%; mortality at 336 h (in vivo; 31.2 mg/kg): 100%; mortality at 336 h (in vivo; 62.5 mg/kg): 100%; mortality at 336 h (in vivo; 125 mg/kg): 83.3%; mortality at 336 h (in vivo; 250 mg/kg): 100%; Mortality (mouse; 7.8 mg/kg): 0/6; Mortality (mouse; 31.2 mg/kg): 6/6; Mortality (mouse; 62.5 mg/kg): 6/6; Mortality (mouse; 125 mg/kg): 5/6; Mortality (mouse; 250 mg/kg): 6/6; Irritation degree 4h (rat subcutaneous tissue): 2; Irritation degree 24h (rat subcutaneous tissue): 2; Percent increase in response with respect to controls (rat peritoneum): 97%; MIC (Streptococcus pyogenes): 10 µg/mL; MIC (Saccharomyces cerevisiae): ≤ 5 µg/mL |
| CCCCCCCCCCCC[N+](C)(C)CCOC(=O)Cc1c(C)n(C(=O)c2ccc(Cl)cc2)c2ccc(OC)cc12 [RE 9, iodide of the ester of 2-N,N,N-dimethyl-dodecyl, amino-ethanol with 1-(p-chlorobenzoyl)-2-methyl-5-methoxy-3-indolyl-acetic acid] | ≤ 5 µg/mL | ≤ 5 µg/mL | ≤ 5 µg/mL | 20 µg/mL | ≤ 5 µg/mL | ≤ 5 µg/mL | 80 µg/mL | ≤ 5 µg/mL | ≤ 5 µg/mL | ≤ 5 µg/mL | ≤ 5 µg/mL | ≤ 5 µg/mL | 80 µg/mL | 80 µg/mL | ≤ 5 µg/mL | 80 µg/mL | ≤ 5 µg/mL | 80 µg/mL | 35% | 40% | mortality at 336 h (in vivo; 31.2 mg/kg): 0%; mortality at 336 h (in vivo; 62.5 mg/kg): 83.3%; mortality at 336 h (in vivo; 125 mg/kg): 100%; mortality at 336 h (in vivo; 250 mg/kg): 83.3%; mortality at 336 h (in vivo; 500 mg/kg): 100%; Mortality (mouse; 62.5 mg/kg): 5/6; Mortality (mouse; 125 mg/kg): 6/6; Mortality (mouse; 250 mg/kg): 5/6; Mortality (mouse; 500 mg/kg): 6/6; Irritation degree 4h (rat subcutaneous tissue): 2; Irritation degree 24h (rat subcutaneous tissue): 2; Percent increase in response with respect to controls (rat peritoneum): 95%; MIC (Streptococcus pyogenes): ≤ 5 µg/mL; MIC (Saccharomyces cerevisiae): ≤ 5 µg/mL |
| CC(C)Cc1ccc(C(C)C(=O)O)cc1 (stereo not drawn) [ibuprofen, Ibuprofen, reference compound] | – | – | – | – | – | – | – | – | – | – | – | – | – | – | – | – | – | – | 60% | 58% | – |
